One block for each molecule: values may come before it.
Key:
[1] = target: GDP-bound HRAS wild-type protein (Homo sapiens, UniProt P01112); assay: Binding to HRAS by surface plasmon resonance (SPR), Single Cycle Kinetics; conditions: SPR, GDP-bound HRAS wild-type protein vs GDP-bound KRAS wild-type protein
[2] = target: GDP-bound NRAS wild-type protein (Homo sapiens, UniProt P01111); assay: Binding to NRAS by surface plasmon resonance (SPR), Single Cycle Kinetics; conditions: SPR, GDP-bound NRAS wild-type protein vs GDP-bound KRAS wild-type protein
Chain of GDP-bound NRAS wild-type protein (P01111 whole entry): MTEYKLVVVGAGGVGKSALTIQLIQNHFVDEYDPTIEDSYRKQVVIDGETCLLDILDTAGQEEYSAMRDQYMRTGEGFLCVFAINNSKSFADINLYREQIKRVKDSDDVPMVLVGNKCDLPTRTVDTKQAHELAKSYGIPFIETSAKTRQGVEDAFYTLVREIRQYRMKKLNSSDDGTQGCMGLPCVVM

[3] = target: GDP-bound KRAS wild-type protein (Homo sapiens, UniProt P01116); assay: Binding to KRAS by surface plasmon resonance (SPR), Single Cycle Kinetics; conditions: SPR, Single Cycle Kinetics, GDP-bound KRAS wild-type protein; read-out: KRAS KD
Chain of GDP-bound KRAS wild-type protein (P01116 whole entry): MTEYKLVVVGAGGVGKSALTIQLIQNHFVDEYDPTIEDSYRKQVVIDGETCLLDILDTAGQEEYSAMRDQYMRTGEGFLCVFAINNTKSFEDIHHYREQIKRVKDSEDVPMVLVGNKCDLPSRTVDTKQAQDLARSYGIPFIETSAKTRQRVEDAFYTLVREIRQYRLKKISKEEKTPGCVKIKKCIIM

Chain of GDP-bound HRAS wild-type protein (P01112 whole entry): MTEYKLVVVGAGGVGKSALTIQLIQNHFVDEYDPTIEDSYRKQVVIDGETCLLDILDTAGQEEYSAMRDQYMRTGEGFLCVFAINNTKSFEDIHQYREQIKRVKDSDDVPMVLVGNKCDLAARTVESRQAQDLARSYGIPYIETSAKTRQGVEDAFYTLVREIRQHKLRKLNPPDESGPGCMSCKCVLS

Structure (SMILES): C#CC[C@H]1C(=O)N[C@@H]([C@@H](C)CC)C(=O)N(C)CC(=O)N(C)[C@H]2C/C=C\CCN(C2=O)[C@@H](Cc2ccc(C(F)(F)F)cc2)C(=O)N(C)CC(=O)N[C@@H](CCc2ccc(C(F)(F)F)c(Cl)c2)C(=O)N2CC3(CC3)C[C@H]2C(=O)NC2(CC(C)(C)C2)C(=O)N(C)[C@@H](C2CCCC2)C(=O)N(C)[C@H](C(=O)N(C)C)CC(=O)N1C [PP2980]
HRAS/KRAS (ratio of KD value for HRAS to KD value for KRAS) [1]: B (a compound having 3 or more and less than 10 is denoted as B)
NRAS/KRAS (ratio of KD value for NRAS to KD value for KRAS) [2]: A (a compound having 10 or more and less than 20 is denoted as A)
Kd [3]: 0.23 nM

Structure (SMILES): CCC[C@H]1C(=O)N[C@@H]([C@@H](C)CC)C(=O)N(C)CC(=O)N(C)[C@H]2C/C=C\CCN(C2=O)[C@@H](Cc2ccc(C(F)(F)F)cc2)C(=O)N(C)CC(=O)N[C@@H](CCc2ccc(C(F)(F)F)c(Cl)c2)C(=O)N2C[C@@H](C)C[C@H]2C(=O)NC2(CC(C)(C)C2)C(=O)N(C)[C@@H](C2CCCC2)C(=O)N(C)[C@H](C(=O)N(C)C)CC(=O)N1C [PP2270]
HRAS/KRAS (ratio of KD value for HRAS to KD value for KRAS) [1]: B (a compound having 3 or more and less than 10 is denoted as B)
NRAS/KRAS (ratio of KD value for NRAS to KD value for KRAS) [2]: B (a compound having 3 or more and less than 10 is denoted as B)
Kd [3]: 0.24 nM

Structure (SMILES): CCO[C@@H]1C[C@H]2C(=O)NC3(CCC3)C(=O)N(C)[C@@H](C3CCCC3)C(=O)N(C)[C@H](C(=O)N3CCOCC3)CC(=O)N(C)[C@@H](COC)C(=O)N[C@@H]([C@@H](C)CC)C(=O)N(C)CC(=O)N(C)[C@H]3CCCCCN(C3=O)[C@@H](Cc3ccc(C(F)(F)F)cc3)C(=O)N(C)CC(=O)N[C@@H](CCc3ccc(C(F)(F)F)c(Cl)c3)C(=O)N2C1 [PP0849]
HRAS/KRAS (ratio of KD value for HRAS to KD value for KRAS) [1]: B (a compound having 3 or more and less than 10 is denoted as B)
NRAS/KRAS (ratio of KD value for NRAS to KD value for KRAS) [2]: B (a compound having 3 or more and less than 10 is denoted as B)
Kd [3]: 0.46 nM

Structure (SMILES): CCO[C@@H]1C[C@H]2C(=O)NC3(CC(C)(C)C3)C(=O)N(C)[C@@H](C(CC)CC)C(=O)N(C)[C@H](C(=O)N3CCCC3)CC(=O)N(C)[C@@H](C)C(=O)N[C@@H]([C@@H](C)CC)C(=O)N(C)CC(=O)N(C)[C@H]3C/C=C\CCN(C3=O)[C@@H](Cc3ccc(C)cc3)C(=O)N(C)CC(=O)N[C@@H](CCc3ccc(Cl)c(Cl)c3)C(=O)N2C1 [PP2187]
HRAS/KRAS (ratio of KD value for HRAS to KD value for KRAS) [1]: A (a compound having 10 or more and less than 20 is denoted as A)
NRAS/KRAS (ratio of KD value for NRAS to KD value for KRAS) [2]: AA (a compound having 20 or more is denoted as AA)
Kd [3]: 0.69 nM

Now from value to molecule, other results behind:

Kd [3]: 0.43 nM
Structure (SMILES): CCO[C@@H]1C[C@H]2C(=O)NC3(CCC3)C(=O)N(C)[C@@H](C3CCCC3)C(=O)N(C)[C@H](C(=O)N(C)C)CC(=O)N(C)[C@@H](CC)C(=O)N[C@@H]([C@@H](C)CC)C(=O)N(C)CC(=O)N(C)[C@H]3CC(C)=CCN(C3=O)[C@@H](Cc3ccc(C(F)(F)F)cc3)C(=O)N(C)CC(=O)N[C@@H](CCc3cc(F)c(C(F)(F)F)c(F)c3)C(=O)N2C1 [PP1034]
HRAS/KRAS (ratio of KD value for HRAS to KD value for KRAS) [1]: C (A compound having a KD ratio of 0.1 or more and less than 3 is denoted as C)
NRAS/KRAS (ratio of KD value for NRAS to KD value for KRAS) [2]: C (A compound having a KD ratio of 0.1 or more and less than 3 is denoted as C)

Kd [3]: 0.093 nM
Structure (SMILES): C#CC[C@H]1C(=O)N[C@@H]([C@@H](C)CC)C(=O)N(C)CC(=O)N(C)[C@H]2C/C=C\CCN(C2=O)[C@@H](Cc2ccc(C(F)(F)F)cc2)C(=O)N(C)CC(=O)N[C@@H](CCc2ccc(C(F)(F)F)c(OC)c2)C(=O)N2C[C@H](OCC)C[C@H]2C(=O)NC2(CCC2)C(=O)N(C)[C@@H](C2CCCC2)C(=O)N(C)[C@H](C(=O)N(C)CCC)CC(=O)N1C [PP2059]
HRAS/KRAS (ratio of KD value for HRAS to KD value for KRAS) [1]: A (a compound having 10 or more and less than 20 is denoted as A)
NRAS/KRAS (ratio of KD value for NRAS to KD value for KRAS) [2]: A (a compound having 10 or more and less than 20 is denoted as A)

Kd [3]: 0.95 nM
Structure (SMILES): CC[C@H](C)[C@@H]1NC(=O)[C@H](CC(C)C)N(C)C(=O)C[C@@H](C)N(C)C(=O)[C@H](C2CCCC2)N(C)C(=O)C2(CCCC2)NC(=O)[C@@H]2CCCN2C(=O)[C@H](CCc2cc(F)c(C(F)(F)F)c(F)c2)NC(=O)CN(C)C(=O)[C@H](Cc2ccc(C(F)(F)F)cc2)N2CC/C=C\C[C@@H](C2=O)N(C)C(=O)CN(C)C1=O [PP1102]
HRAS/KRAS (ratio of KD value for HRAS to KD value for KRAS) [1]: A (a compound having 10 or more and less than 20 is denoted as A)
NRAS/KRAS (ratio of KD value for NRAS to KD value for KRAS) [2]: B (a compound having 3 or more and less than 10 is denoted as B)
